Assay results published in US9670242B2, “Tetracyclic anthraquinone derivatives” (Tianjin Hemay Bio-Tech Co., Ltd, priority 2012, dated 2017).

Columns and labels:
Assay type in all cases: cell-based, human
[1] = tested on: MDA-MB-453 cells; assay: MDA-MB-453 cell growth inhibition test (SRB assay); settings: growth inhibition at 2000 nM, 69.5 h
Method: MDA-MB-453 Cell Growth Inhibition Test (SRB Assay)
Cell strains: MDA-MB-453 (human breast cancer cell strains); SRB: 0.4% (w/v) working solution was formulated with 1% glacial acetic acid, reserved at 4° C.; antitumor compounds; DMSO.
(§1) II. Reagents and Consumable Materials
Culture medium: 90% L15+10% FBS; pancreatin (0.25% (w/v) solution was formulated with PBS, 0.53 mM of EDTA was added in the formulation); PBS; 96-well culture plate.
(§2) 1. A plate (10 cm) of cells in logarithmic growth phase that were normally cultured was collected;
(§3) 2. The culture solution was sucked out. The plate was washed with 5 mL of PBS once or twice;
(§4) 3. 1.5 mL of 0.25% pancreatin was added to the plate to infiltrate the cells;
(§5) 4. The pancreatin was sucked out. The culture plate was placed in an incubator. Digestion was carried out for about 3 min at 37° C.;
(§6) 5. 4 mL of complete culture solution was added to the culture plate to stop the digestion. The cells were carefully scoured with micropipette (1 ml) to give a uniform single cell suspension. The suspension was implanted into a 96-well cell culture plate by 7000 cells/100 μL per well. The culture plate was incubated overnight under 5% CO2 at 37° C. In day 2, 100 μL of culture solution comprising a compound was added in each well.
The plate was further incubated for 69.5 h under 5% CO2 at 37° C.;
(§7) 6. The culture solution was sucked out. 100 uL of TCA fixed cells which were diluted to 10% were added to each well. The plate was kept in a refrigerator for 1 h at 4° C.
(§8) 7. TCA stationary liquid was sucked out. Each well was washed with 150 μL of ddH2O five times;
(§9) 8. After the stationary liquid was cleansed, the plate was dried in the air at the room temperature;
(§10) 9. 60 μL of SRB staining solution was added in each well. The well was stained for 15 min at the room temperature;
(§11) 10. The SRB staining solution was sucked out. Each well was washed with 150 μL of 1% glacial acetic acid five times;
(§12) 11. After the SRB staining solution was cleansed, the plate was dried in the air at the room temperature;
(§13) 12. 100 μL of 10 mM Tris was added in each well. The plate was vibrated to dissolve out SRB;
(§14) 13. OD values were determined at 570 nM.
(§15) IV. Results and Treatments
(§16) 1. Calculation of Relative Inhibition Ratio The inhibition ratio of a compound on cell growth=(PC−n)/(PC−NC)×100%
(§17) PC: OD values of cells after normal growth in control wells without a compound;
(§18) n: OD values of cells after growth in test wells with a compound;
(§19) NC: Background OD values of blank wells without a compound and cells.

[2] = tested on: 22Rv1 cells; assay: 22Rv1 cell growth inhibition test (SRB assay); settings: growth inhibition at 222 nM, 73 h
Method: 22Rv1 Cell Growth Inhibition Test (SRB Assay)
Cell strains: 22Rv1 (human prostate cancer cell strains); SRB: 0.4% (w/v) working solution was formulated with 1% glacial acetic acid, reserved at 4° C.; antitumor compounds; DMSO.
as §1
(§20) Culture medium: 90% RPMI-1640+10% FBS; Pancreatin (0.25% (w/v) solution was formulated with PBS, 0.53 mM of EDTA was added in the formulation); PBS; 96-well culture plate.
as §2, §3, §4, §5
as §6, with “each well. The plate was further incubated for 73 h under 5% CO2 at 37° C.;” for “each well.”
as §7, §8, §9, §10, §11, §12, §13, §14, §15, §16, §17, §18, §19

[3] = tested on: BxPc-3 cells; assay: BxPc-3 cell growth inhibition test (MTT assay); settings: growth inhibition at 2000 nM, 70 h
Method: BxPc-3 Cell Growth Inhibition Test (MTT Assay)
Cell strains: BxPC-3 (human pancreatic cancer cell strains); MTT; antitumor compounds; DMSO.
as §1, §20, §2, §3
(§21) 3. PBS was sucked out. 1.5 mL of 0.25% pancreatin was added to infiltrate the cells;
4. The culture plate was placed in an incubator. Digestion was carried out for about 8 min at 37° C.;
(§22) 5. 4.5 mL of complete culture solution was added to the culture plate to stop the digestion. The cells were carefully scoured with micropipette (1 ml) to give a uniform cell suspension. The suspension was implanted into a 96-well cell culture disc by 5000 cells/100 μL per well. The culture plate was incubated overnight under 5% CO2 at 37° C. In day 2, 100 μL of culture solution comprising a compound was added in each well. The plate was further incubated for 70 h under 5% CO2 at 37° C.;
(§23) 6. The culture solution was sucked out;
(§24) 7. 100 μL of serum-free culture solution containing 0.5 mg/mL MTT was added in each well. The plate was incubated for 3 h;
(§25) 8. The culture solution was carefully sucked out;
(§26) 9. 100 μL of DMSO was added into each well and vibrated to dissolve;
(§27) 10. OD values were determined at 490 nM.
as §15, §16, §17, §18, §19

[4] = tested on: SK-OV-3 cells; assay: SK-OV-3 cell growth inhibition test (MTT assay); settings: growth inhibition at 667 nM, 69 h
Method: SK-OV-3 Cell Growth Inhibition Test (MTT Assay)
Cell strains: SK-OV-3 (human ovarian cancer cell strains); MTT; antitumor compounds; DMSO.
as §1
Culture medium: 90% McCoy's 5A+10% FBS; Pancreatin (0.25% (w/v) solution was formulated with PBS, 0.53 mM of EDTA was added in the formulation); PBS; 96-well culture plate.
as §2, §3, §21
4. The pancreatin was sucked out. The culture plate was placed in an incubator. Digestion was carried out for about 5 min at 37° C.;
as §22, with “4000” for “5000”, “69” for “70”
as §23, §24, §25
9. 100 μL of DMSO was added in each well and vibrated to dissolve;
as §27, §15, §16, §17, §18, §19

[5] = tested on: NCI-H446 cells; assay: NCI-H446 cell growth inhibition test (MTT assay); settings: growth inhibition at 222 nM, 70 h
Method: NCI-H446 Cell Growth Inhibition Test (MTT Assay)
Cell strains: NCI-H446 (human small cell lung cancer cell strains); MTT; antitumor compounds; DMSO.
as §1, §20, §2, §3, §21
4. The culture plate was placed in an incubator. Digestion was carried out for about 3 min at 37° C.;
as §22, with “3” for “4.5”, “4000” for “5000”
as §23, §24, §25, §26, §27, §15, §16, §17, §18, §19

Structure (SMILES)	Inhibition Ratio (%) [1] [%]	Inhibition Ratio (%) [2] [%]	Inhibition Ratio (%) [3] [%]	Inhibition Ratio (%) [4] [%]	Inhibition Ratio (%) [5] [%]
COc1cccc2c1C(=O)c1c(O)c3c(c(O)c1C2=O)CC(O)(C(=O)COC(=O)CCC(=O)NCCc1ccccn1)CC3OC1CC(n2cccc2)C(O)C(C)O1 (stereo not drawn) [Example 34]	80.5	63.3	84	59.4	60.7
COc1cccc2c1C(=O)c1c(O)c3c(c(O)c1C2=O)CC(O)(C(=O)COC(=O)CCC(=O)Nc1ccc(N2CCOCC2)nc1)CC3OC1CC(n2cccc2)C(O)C(C)O1 (stereo not drawn) [Example 20]	82.4	60.9	84.1	62.6	68
COc1cccc2c1C(=O)c1c(O)c3c(c(O)c1C2=O)CC(O)(C(=O)COC(=O)CCC(=O)Nc1ccncc1)CC3OC1CC(n2cccc2)C(O)C(C)O1 (stereo not drawn) [Example 22]	71.1	56.3	82	60.3	62.1
COc1cccc2c1C(=O)c1c(O)c3c(c(O)c1C2=O)CC(O)(C(=O)COC(=O)CCC(N)=O)CC3OC1CC(n2cccc2)C(O)C(C)O1 (stereo not drawn) [Example 66]	73.9	59	83.1	66.5	56.2
COc1cccc2c1C(=O)c1c(O)c3c(c(O)c1C2=O)CC(O)(C(=O)COC(=O)CCCC(=O)Nc1ccc(CN2CCOCC2)cc1)CC3OC1CC(n2cccc2)C(O)C(C)O1 (stereo not drawn) [Example 3]	73.9	61.9	81.2	62.5	60.8
COc1cccc2c1C(=O)c1c(O)c3c(c(O)c1C2=O)CC(O)(C(=O)COC(=O)CCC(=O)N1CCN(CCCN(C)C)CC1)CC3OC1CC(n2cccc2)C(O)C(C)O1 (stereo not drawn) [Example 44]	68.5	48.5	78.5	52.3	46.3
COc1cccc2c1C(=O)c1c(O)c3c(c(O)c1C2=O)CC(O)(C(=O)COC(=O)CCC(=O)NS(=O)(=O)c1ccccc1)CC3OC1CC(n2cccc2)C(O)C(C)O1 (stereo not drawn) [Example 95]	68.2	51.3	80.6	66.3	–
COc1cccc2c1C(=O)c1c(O)c3c(c(O)c1C2=O)CC(O)(C(=O)COC(=O)CCC(=O)NCCc1ccncc1)CC3OC1CC(n2cccc2)C(O)C(C)O1 (stereo not drawn) [Example 32]	78.3	61.7	83.4	59.7	59.3
COc1cccc2c1C(=O)c1c(O)c3c(c(O)c1C2=O)CC(O)(C(=O)COC(=O)CCCC(=O)NCCc1ccccn1)CC3OC1CC(n2cccc2)C(O)C(C)O1 (stereo not drawn) [Example 35]	77.1	58.5	81.3	57.8	57.2
COc1cccc2c1C(=O)c1c(O)c3c(c(O)c1C2=O)CC(O)(C(=O)COC(=O)CCC(=O)NCc1ccncc1)CC3OC1CC(n2cccc2)C(O)C(C)O1 (stereo not drawn) [Example 26]	79.9	60.8	82.7	67.6	66.9
COc1cccc2c1C(=O)c1c(O)c3c(c(O)c1C2=O)CC(O)(C(=O)COC(=O)CCC(=O)NCCCN1CCCC1)CC3OC1CC(n2cccc2)C(O)C(C)O1 (stereo not drawn) [Example 18]	–	–	70.7	47.4	–
COc1cccc2c1C(=O)c1c(O)c3c(c(O)c1C2=O)CC(O)(C(=O)COC(=O)CCC(=O)Nc1cccnc1)CC3OC1CC(n2cccc2)C(O)C(C)O1 (stereo not drawn) [Example 24]	79.8	63.6	84.7	61.4	61.8
COc1cccc2c1C(=O)c1c(O)c3c(c(O)c1C2=O)CC(O)(C(=O)COC(=O)CCC(=O)NN1CCOCC1)CC3OC1CC(n2cccc2)C(O)C(C)O1 (stereo not drawn) [Example 10]	78.5	62.7	85	71.5	61.1
COc1cccc2c1C(=O)c1c(O)c3c(c(O)c1C2=O)CC(O)(C(=O)COC(=O)CCC(=O)N1CCN(CCO)CC1)CC3OC1CC(n2cccc2)C(O)C(C)O1 (stereo not drawn) [Example 8]	75.3	56.8	82.6	60	59.5
COc1cccc2c1C(=O)c1c(O)c3c(c(O)c1C2=O)CC(O)(C(=O)COC(=O)CCC(=O)NCc1cccnc1)CC3OC1CC(n2cccc2)C(O)C(C)O1 (stereo not drawn) [Example 28]	81.9	63.1	84.7	66.2	65.8
COc1cccc2c1C(=O)c1c(O)c3c(c(O)c1C2=O)CC(O)(C(=O)COC(=O)CCC(=O)NN1CCN(C)CC1)CC3OC1CC(n2cccc2)C(O)C(C)O1 (stereo not drawn) [Example 14]	74.4	52.1	81.8	53.6	–
